According to patent US10093611B2, “Benzocycloalkenes as antifungal agents” (Bayer Intellectual Property GmbH, priority 2010, dated 2018):

Experiments:
[1] = log P by HPLC on reversed-phase column (C 18), EEC Directive 79/831 Annex V.A8; format: physicochemical; conditions: C 18 reversed phase, 40° C., 0.1% aqueous formic acid and acetonitrile gradient
Protocol: In table 1, the log P values were determined in accordance with EEC Directive 79/831 Annex V.A8 by HPLC (High Performance Liquid Chromatography) on a reversed-phase column (C 18), using the method described below: Temperature: 40° C.; Mobile phases: 0.1% aqueous formic acid and acetonitrile; linear gradient from 10% acetonitrile to 90% acetonitrile. Calibration was carried out using unbranched alkan-2-ones (comprising 3 to 16 carbon atoms) with known log P values (determination of the log P values by the retention times using linear interpolation between two successive alkanones). lambda-max-values were determined using UV-spectra from 200 nm to 400 nm and the peak values of the chromatographic signals.

[2] = system: Alternaria solani; experiment: In vivo preventive test on Alternaria solani (tomato); conditions: 500 ppm of active ingredient, evaluated 7 days after inoculation
Protocol: EXAMPLE A: IN VIVO PREVENTIVE TEST ON ALTERNARIA SOLANI (TOMATO) Solvent: 49 parts by weight of N,N-dimethylformamide Emulsifier: 1 part by weight of Alkylarylpolyglycolether To produce a suitable preparation of active compound, 1 part by weight of active compound is mixed with the stated amounts of solvent and emulsifier, and the concentrate is diluted with water to the desired concentration. To test for preventive activity, young plants are sprayed with the preparation of active compound at the stated rate of application. One day after this treatment, the plants are inoculated with an aqueous spore suspension of Alternaria solani. The plants remain for one day in an incubation cabinet at approximately 22° C. and a relative atmospheric humidity of 100%. Then the plants are placed in an incubation cabinet at approximately 20° C. and a relative atmospheric humidity of 96%. The test is evaluated 7 days after the inoculation. 0% means an efficacy which corresponds to that of the control while an efficacy of 100% means that no disease is observed. Under these conditions, good (at least 80%) to total protection is observed at a dose of 500 ppm of active ingredient with the following compounds from table A: […]

[3] = system: Pyrenophora teres; experiment: In vivo preventive test on Pyrenophora teres (barley); conditions: 500 ppm of active ingredient, evaluated 7-9 days after inoculation
Protocol: EXAMPLE F: IN VIVO PREVENTIVE TEST ON PYRENOPHORA TERES (BARLEY) Solvent: 49 parts by weight of N,N-dimethylformamide Emulsifier: 1 part by weight of Alkylarylpolyglycolether To produce a suitable preparation of active compound, 1 part by weight of active compound is mixed with the stated amounts of solvent and emulsifier, and the concentrate is diluted with water to the desired concentration. To test for preventive activity, young plants are sprayed with the preparation of active compound at the stated rate of application. One day after this treatment, the plants are inoculated with an aqueous spore suspension of Pyrenophora teres. The plants remain for 48 hours in an incubation cabinet at 22° C. and a relative atmospheric humidity of 100%. Then the plants are placed in a greenhouse at a temperature of approximately 20° C. and a relative atmospheric humidity of approximately 80%. The test is evaluated 7-9 days after the inoculation. 0% means an efficacy which corresponds to that of the untreated control while an efficacy of 100% means that no disease is observed. Under these conditions, high (at least 90%) to total protection is observed at a dose of 500 ppm of active ingredient with the following compounds from table F: […]

[4] = system: Leptosphaeria nodorum; experiment: In vivo preventive test on Leptosphaeria nodorum (wheat); conditions: 500 ppm of active ingredient, evaluated 8 days after inoculation
Protocol: EXAMPLE D: IN VIVO PREVENTIVE TEST ON LEPTOSPHAERIA NODORUM (WHEAT) Solvent: 49 parts by weight of N,N-dimethylacetamide Emulsifier: 1 part by weight of alkylaryl polyglycol ether To produce a suitable preparation of active compound, 1 part by weight of active compound or the compound combination is mixed with the stated amounts of solvent and emulsifier, and the concentrate is diluted with water to the desired concentration. To test for protective activity, young plants are sprayed with a preparation of active compound or active compound combination at the stated rate of application. After the spray coating has dried on, the plants are sprayed with a spore suspension of Leptosphaeria nodorum. The plants remain for 48 hours in an incubation cabinet at 20° C. and a relative atmospheric humidity of 100%. The plants are placed in a greenhouse at a temperature of approximately 22° C. and a relative atmospheric humidity of approximately 80%. The test is evaluated 8 days after the inoculation. 0% means an efficacy which corresponds to that of the control, while an efficacy of 100% means that no disease is observed. Under these conditions, good (at least 75%) to total protection is observed at a dose of 500 ppm of active ingredient with the following compounds from table D: Under the same conditions, excellent protection (greater than 94%) is observed at a dose of 500 ppm of active ingredient with compound 2, whereas poor protection (less than 30%) is observed with the isosteric analogue compound CMP1 claimed in WO-2009/016218 as in table D2.

[5] = system: Sphaerotheca fuliginea; experiment: In vivo preventive test on Sphaerotheca fuliginea (cucumbers); conditions: 500 ppm of active ingredient, evaluated 7 days after inoculation
Protocol: EXAMPLE H: IN VIVO PREVENTIVE TEST ON SPHAEROTHECA FULIGINEA (CUCUMBERS) Solvent: 24.5 parts by weight of acetone • 24.5 parts by weight of N,N-dimethylacetamide Emulsifier: 1 part by weight of alkylaryl polyglycol ether To produce a suitable preparation of active compound, 1 part by weight of active compound is mixed with the stated amounts of solvent and emulsifier, and the concentrate is diluted with water to the desired concentration. To test for protect activity, young plants are sprayed with the preparation of active compound at the stated rate of application. After the spray coating has dried on, the plants are inoculated with an aqueous spore suspension of Sphaerotheca fuliginea. The plants are then placed in a greenhouse at approximately 23° C. and a relative atmospheric humidity of approximately 70%. The test is evaluated 7 days after the inoculation. 0% means an efficacy which corresponds to that of the untreated control, while an efficacy of 100% means that no disease is observed. Under these conditions, high (at least 90%) to total protection is observed at a dose of 100 ppm of active ingredient with the following compounds from table H: Under the same conditions, high protection (greater than 80%) is observed at a dose of 500 ppm of active ingredient with compound 7, whereas poor protection (less than 20%) is observed with the isosteric analogue compound CMP2 claimed in WO-2009/016218 as in table H2.

| Structure (SMILES) | logP [1] | Efficacy [2] [%] | Efficacy [3] [%] | Efficacy [4] [%] | Efficacy ([4]; listed as compound 2) | Efficacy [5] [%] | Efficacy ([5]; listed as compound 7) |
| --- | --- | --- | --- | --- | --- | --- | --- |
| Cn1cc(C(=O)N(C2CC2)C2CCc3ccccc3C2)c(C(F)F)n1 (stereo not drawn) [Example 6] | 3.08 | 95 | 100 | – | – | – | – |
| Cn1cc(C(=O)N(CC2Cc3ccccc3O2)C2CC2)c(C(F)F)n1 (stereo not drawn) [Example 18] | 2.54 | – | 95 | – | – | – | – |
| Cn1nc(C(F)F)c(C(=O)N(CC2Cc3ccccc3O2)C2CC2)c1F (stereo not drawn) [Example 19] | 2.86 | – | 100 | – | – | – | – |
| CCc1nn(C)c(F)c1C(=O)N(C1CC1)C1CCc2ccccc2C1 (stereo not drawn) [Example 5] | 3.35 | 95 | 95 | 78 | – | – | – |
| Cn1cc(C(=S)N(C2CC2)C2CCc3ccccc3C2)c(C(F)F)n1 (stereo not drawn) [Example 8] | 3.73 | – | 95 | – | – | – | – |
| CC(C1CCc2ccccc2C1)N(C(=O)c1ccsc1I)C1CC1 (stereo not drawn) [Example 15] | 4.82 | – | – | – | – | – | – |
| Cn1nc(C(F)F)c(C(=O)N(C2CC2)C2Cc3ccccc3C2)c1F [Example 2] | 3.19 | 94 | – | 94 | greater than 94% | – | – |
| Cc1nn(C)c(F)c1C(=O)N(C1CC1)C1CCc2ccccc2C1 (stereo not drawn) [Example 4] | 3.00 | – | 90 | – | – | – | – |
| Cn1nc(C(F)F)c(C(=S)N(C2CC2)C2CCc3ccccc3C2)c1F (stereo not drawn) [Example 9] | 4.21 | 93 | 100 | – | – | – | – |
| Cn1nc(C(F)F)c(C(=O)N(CC2COc3ccccc3C2)C2CC2)c1F (stereo not drawn) [Example 20] | 3.00 | 80 | 100 | – | – | – | – |
| Cc1cc(C(=O)N(C2CC2)C2CCc3ccccc3C2)c(C)o1 (stereo not drawn) [Example 3] | 4.01 | – | – | – | – | – | – |
| Cc1cc(C(=O)N(C2CC2)C(C)C2Cc3ccccc3C2)c(C)o1 (stereo not drawn) [Example 10] | 4.34 | 95 | 90 | – | – | – | – |
| Cn1nc(C(F)F)c(C(=O)N(C2CC2)C2CCc3ccccc3C2)c1F (stereo not drawn) [Example 7] | 3.48 | 100 | 100 | 94 | – | 80 | greater than 80% |
| Cn1nc(C(F)F)c(C(=O)N(C2CC2)C2Cc3ccccc3C2)c1Cl [Example 1] | 3.35 | 89 | – | – | – | – | – |
| Cn1nc(C(F)F)c(C(=O)N(CC2Cc3ccccc3O2)C2CC2)c1Cl (stereo not drawn) [Example 21] | 3.04 | – | – | – | – | – | – |
